Holding throughout (assay type): cell-based
The subject of one assay is LNCaP. Briefly: Cell growth inhibition assay, prostate cancer cell line LNCaP (medium with 10 ng/mL IL-6). Conditions: Homo sapiens, medium supplemented with 10 ng/mL of IL-6, 10,000 cells/well.
The test system of a further assay is AGS. The experiment in a line: Cell growth inhibition assay, stomach cancer cell line AGS. Conditions: Homo sapiens; AGS stomach cancer cell line, 3,000 cells/well. Here is the method: The inhibitory effects of the compounds of the present invention against the growth of cancer cells were evaluated as shown below. The cancer cell lines including stomach cancer cell line (AGS), breast cancer cell lines (MDA-MB-231, MDA-MB-468, and BT-549), prostate cancer cell lines (LNCaP and DU-145), colon cancer cell line (HCT116), ovarian cancer cell line (SW626), liver cancer cell line (Hep3B), kidney cancer cell line (ACHN), lung cancer cell line (NCI-H23) and blood cancer cell lines (HEL92.1.7 and U266) were cultured under the protocol provided by each supplier. A medium supplemented with 10 ng/mL of IL-6 was used for LNCaP, a prostate cancer cell line, when treated with a drug. Each type of cells to be used in experiments were sub-cultured in a 96-well plate by counting the exact number of cells using Tali™ Image-based Cytometer (Life Technologies). In a 96-well plate, AGS, HCT116, and DU-145 were employed with 3,000 cells/well; NCI-H23, SW626, Hep3B, ACHN, BT-549, MDA-MB-231, HEL92.1.7, and U266 were employed with 5,000 cells/well; and LNCaP and MDA-MB-468 were employed with 10,000 cells/well. The cells were treated with the compounds listed in Examples which were diluted in various concentrations. Upon completion of the compounds treatment, AGS, HCT116, SW626, DU145, NCI-H23, Hep3B, ACHN, BT-549, LNCaP, HEL92.1.7, and U266 cells were cultured at 37° C. under 5% CO2 for from 72 to 96 hours, and MDA-MB-231 and MDA-MB-468 cells were cultured at 37° C. in air for from 72 to 96 hours. Subsequently, the cells were observed under microscope and drug precipitation and particular findings were investigated and recorded. And then, the 96-well plate was placed at room temperature for 30 minutes, added with 20 μL/well of CellTiter-Glo solution (Cat No. G7573, Promega) and shaken for 10 minutes, followed by being subjected to the measurement using PHERAstar™ microplate reader (BMG LABTECH) according to the supplier's general luminometer protocol. Wells where only culture liquid added without cell plating were used as a negative control, whereas wells where culture liquid containing 0.1% DMSO instead of the compounds listed in Examples were used as a positive control.

The next assay concerns the target T1, STAT3 (Homo sapiens, UniProt P40763).
T1 construct: plasmid pSTAT3-TA-luc), which contains a stably operating STAT3 promoter; endogenous in cells
The experiment in a line: STAT3 reporter gene assay (luciferase), LNCaP stable cell line (pSTAT3-TA-luc), IL-6 stimulation. An outline of the steps:
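LNCaP cells stably carrying pSTAT3-TA-luc, in RPMI1640 with 3% DCC-FBS, were treated with compound and then stimulated with 10 ng/mL IL-6 for 24–48 h at 37 °C. Luciferase activity was measured in lysates. A parallel plate measured viability by CellTiter-Glo, with stimulated 0.1% DMSO wells as the positive control.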
Background: Reporter assays use an easily measured gene product as a stand-in for the process of interest.

T1 sequence (P40763 whole entry): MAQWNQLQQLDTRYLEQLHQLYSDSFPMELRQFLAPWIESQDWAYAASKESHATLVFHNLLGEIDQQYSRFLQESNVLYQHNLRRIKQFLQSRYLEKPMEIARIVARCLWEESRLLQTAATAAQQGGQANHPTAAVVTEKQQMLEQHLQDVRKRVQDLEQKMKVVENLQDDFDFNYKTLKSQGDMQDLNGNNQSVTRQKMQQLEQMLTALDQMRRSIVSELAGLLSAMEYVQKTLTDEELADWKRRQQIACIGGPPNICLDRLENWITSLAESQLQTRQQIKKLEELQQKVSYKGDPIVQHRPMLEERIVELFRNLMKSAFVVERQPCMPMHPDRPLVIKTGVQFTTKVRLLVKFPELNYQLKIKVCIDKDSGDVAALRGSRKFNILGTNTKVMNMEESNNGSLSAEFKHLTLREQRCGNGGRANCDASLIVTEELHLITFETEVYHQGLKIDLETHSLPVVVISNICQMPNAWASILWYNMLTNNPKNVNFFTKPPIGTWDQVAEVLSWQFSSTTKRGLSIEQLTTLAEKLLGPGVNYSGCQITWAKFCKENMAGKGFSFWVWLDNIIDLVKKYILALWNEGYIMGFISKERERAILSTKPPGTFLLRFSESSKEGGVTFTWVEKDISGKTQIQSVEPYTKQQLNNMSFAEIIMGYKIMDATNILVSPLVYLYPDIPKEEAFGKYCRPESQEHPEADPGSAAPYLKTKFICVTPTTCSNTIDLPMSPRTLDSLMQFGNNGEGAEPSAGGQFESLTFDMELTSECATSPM

Broadly, the IC50 is the concentration that gives 50% inhibition. A high value points to a need for much substance. `O=C(Nc1cccc(-c2ccccc2C(F)(F)F)c1)c1nc2ccc([N+](=O)[O-])cc2s1` [Example 232, 6-nitro-N-(2′-(trifluoromethyl)-[1,1′-biphenyl]-3-yl)benzo[d]thiazole-2-carboxamide]: the values for the half-inhibitory concentration (IC50) in the assay with LNCaP, in the assay on AGS and against STAT3 were greater than 10 µM, 20.5 µM and greater than 10 µM, respectively.

`O=C(Nc1cccc(-c2ccc(F)cc2F)c1)c1nc2cc([N+](=O)[O-])ccc2[nH]1` [Example 233, N-(2′,4′-difluoro-[1,1′-biphenyl]-3-yl)-5-nitro-1H-benzo[d]imidazole-2-carboxamide]: the IC50 in the assay with LNCaP is greater than 10 µM; in the assay on AGS, greater than 50 µM; at STAT3, greater than 10 µM.

With `O=C(Nc1cccc(-c2ccccc2C(F)(F)F)c1)c1nc2cc([N+](=O)[O-])ccc2[nH]1` [Example 234, 5-nitro-N-(2′-(trifluoromethyl)-[1,1′-biphenyl]-3-yl)-1H-benzo[d]imidazole-2-carboxamide], the IC50 in the assay on LNCaP was 1.56 µM; in the assay with AGS, 1.6 µM; against STAT3, greater than 10 µM.

With `O=C(Nc1cccc(-c2ccc(F)cc2C(F)(F)F)c1)c1nc2cc([N+](=O)[O-])ccc2[nH]1` [Example 235, N-(4′-fluoro-2′-(trifluoromethyl)-[1,1′-biphenyl]-3-yl)-5-nitro-1H-benzo[d]imidazole-2-carboxamide], the IC50 was greater than 10 µM with LNCaP, 37 µM in the assay with AGS and greater than 10 µM on STAT3.

Take `O=C(Nc1cccc(-c2ccc(F)cc2C(F)(F)F)c1)c1cc2ccc([N+](=O)[O-])cc2[nH]1` [Example 244, N-(4′-fluoro-2′-(trifluoromethyl)-[1,1′-biphenyl]-3-yl)-6-nitro-1H-indole-2-carboxamide]: the figures for the IC50 in the assay with LNCaP, in the assay on AGS and against STAT3 were greater than 10 µM, 30.6 µM and greater than 10 µM, respectively.

In the case of `Cn1c(C(=O)Nc2cccc(-c3ccc(F)cc3F)c2)cc2ccc([N+](=O)[O-])cc21` [Example 247, N-(2′,4′-difluoro-[1,1′-biphenyl]-3-yl)-1-methyl-6-nitro-1H-indole-2-carboxamide], the half-maximal inhibitory concentration (IC50) with LNCaP was 3.7 µM; in the assay with AGS, greater than 50 µM; on STAT3, greater than 10 µM.

Turning to `Cn1c(C(=O)Nc2cccc(-c3ccc(F)cc3F)c2)cc2ccc(NS(C)(=O)=O)cc21` [Example 248, N-(2′,4′-difluoro-[1,1′-biphenyl]-3-yl)-1-methyl-6-(methylsulfonamido)-1H-indole-2-carboxamide], the concentration for half-maximal inhibition (IC50) came out at 9.6 µM in the assay with LNCaP, 15.7 µM with AGS and 6.1 µM against STAT3.

On to `Cn1c(C(=O)Nc2cccc(-c3ccccc3C(F)(F)F)c2)cc2ccc([N+](=O)[O-])cc21` [Example 249, 1-methyl-6-nitro-N-(2′-(trifluoromethyl)-[1,1′-biphenyl]-3-yl)-1H-indole-2-carboxamide], for which the IC50 was greater than 10 µM with LNCaP, 8.4 µM in the assay with AGS and greater than 10 µM on STAT3.

As for `Cn1c(C(=O)Nc2cccc(-c3ccccc3C(F)(F)F)c2)cc2cc([N+](=O)[O-])ccc21` [Example 250, 1-methyl-5-nitro-N-(2′-(trifluoromethyl)-[1,1′-biphenyl]-3-yl)-1H-indole-2-carboxamide], the figures for the half-inhibitory concentration (IC50) in the assay on LNCaP, with AGS and at STAT3 were greater than 10 µM, 22 µM and greater than 10 µM, respectively.

Consider `Cc1c(C(=O)Nc2cccc(-c3ccccc3C(F)(F)F)c2)n(CCN2CCOCC2)c2ccc([N+](=O)[O-])cc12` [Example 251, 3-methyl-1-(2-morpholinoethyl)-5-nitro-N-(2′-(trifluoromethyl)-[1,1′-biphenyl]-3-yl)-1H-indole-2-carboxamide], for which the half-inhibitory concentration (IC50) is greater than 10 µM in the assay with LNCaP, 26.7 µM in the assay with AGS and greater than 10 µM at STAT3.

For the compound `O=C(Nc1cccc(-c2ccccc2C(F)(F)F)c1)c1cc2ccc([N+](=O)[O-])cc2n1CCN1CCOCC1` [Example 252, 1-(2-morpholinoethyl)-6-nitro-N-(2′-(trifluoromethyl)-[1,1′-biphenyl]-3-yl)-1H-indole-2-carboxamide], the values for the IC50 with LNCaP, in the assay with AGS and against STAT3 were greater than 10 µM, 11.4 µM and greater than 10 µM, respectively.

Consider `Cn1c(C(=O)Nc2cccc(-c3ccccc3C(F)(F)F)c2)cc2ccc(NS(C)(=O)=O)cc21` [Example 253, 1-methyl-6-(methylsulfonamido)-N-(2′-(trifluoromethyl)-[1,1′-biphenyl]-3-yl)-1H-indole-2-carboxamide], for which the values for the half-maximal inhibitory concentration (IC50) with LNCaP, in the assay with AGS and at STAT3 were 8.5 µM, 7.6 µM and 4.7 µM, respectively.

`CC(C)(Oc1ccc2cc(C(=O)Nc3cccc(-c4ccc(F)cc4F)c3)[nH]c2c1)C(=O)O` [Example 254, 2-((2-((2′,4′-difluoro-[1,1′-biphenyl]-3-yl)carbamoyl)-1H-indol-6-yl)oxy)-2-methylpropanoic acid]: the figures for the IC50 in the assay on LNCaP, in the assay with AGS and at STAT3 were greater than 10 µM, greater than 50 µM and greater than 10 µM, respectively.

For the compound `CCOC(=O)COc1ccc2cc(C(=O)Nc3cccc(-c4ccc(F)cc4F)c3)[nH]c2c1` [Example 255, ethyl 2-((2-((2′,4′-difluoro-[1,1′-biphenyl]-3-yl)carbamoyl)-1H-indol-6-yl)oxy)acetate], the half-inhibitory concentration (IC50) with LNCaP was greater than 10 µM; with AGS, 18.1 µM; against STAT3, greater than 10 µM.

Turning to `O=C(O)COc1ccc2cc(C(=O)Nc3cccc(-c4ccc(F)cc4F)c3)[nH]c2c1` [Example 256, 2-((2-((2′,4′-difluoro-[1,1′-biphenyl]-3-yl)carbamoyl)-1H-indol-6-yl)oxy)acetic acid], the half-maximal inhibitory concentration (IC50) with LNCaP is greater than 10 µM; with AGS, greater than 50 µM; against STAT3, greater than 10 µM.

For the compound `CNS(=O)(=O)Nc1ccc2cc(C(=O)Nc3cccc(-c4ccc(F)cc4F)c3)[nH]c2c1` [Example 257, N-(2′,4′-difluoro-[1,1′-biphenyl]-3-yl)-6-((N-methylsulfamoyl)amino)-1H-indole-2-carboxamide], the figures for the IC50 in the assay with LNCaP, in the assay on AGS and against STAT3 were 2.8 µM, 11 µM and 3.5 µM, respectively.

In the case of `Nc1ccc2[nH]c(C(=O)Nc3cccc(-c4ccccc4C(F)(F)F)c3)cc2c1` [Example 258, 5-amino-N-(2′-(trifluoromethyl)-[1,1′-biphenyl]-3-yl)-1H-indole-2-carboxamide], the figures for the IC50 with LNCaP, in the assay with AGS and at STAT3 were 5.2 µM, 16.3 µM and 2.7 µM, respectively.

As to `CS(=O)(=O)Nc1ccc2c(c1)NC(C(=O)Nc1cccc(-c3ccc(F)cc3F)c1)C2` (stereo not drawn) [Example 261, N-(2′,4′-difluoro-[1,1′-biphenyl]-3-yl)-6-(methylsulfonamido)indoline-2-carboxamide], the values for the half-inhibitory concentration (IC50) with LNCaP, in the assay with AGS and against STAT3 were 2.9 µM, 28.4 µM and 2.4 µM, respectively.

On to `CS(=O)(=O)Nc1ccc2c(c1)NC(C(=O)Nc1cccc(-c3ccc(F)cc3C(F)(F)F)c1)C2` (stereo not drawn) [Example 262, N-(4′-fluoro-2′-(trifluoromethyl)-[1,1′-biphenyl]-3-yl)-6-(methylsulfonamido)indoline-2-carboxamide], for which the IC50 in the assay with LNCaP is 9.8 µM; with AGS, greater than 50 µM; at STAT3, 5.3 µM.

For the compound `CC(C)(C)OC(=O)n1c(C(=O)Nc2cccc(-c3ccccc3C(F)(F)F)c2)cc2ccc([N+](=O)[O-])cc21` [Example 263, tert-butyl 6-nitro-2-((2′-(trifluoromethyl)-[1,1′-biphenyl]-3-yl)carbamoyl)-1H-indole-1-carboxylate], the IC50 in the assay with LNCaP was 8 µM; with AGS it was greater than 50 µM; against STAT3 it was greater than 10 µM.

Turning to `O=C(Nc1cccc(-c2ccccc2C(F)(F)F)c1)c1cc2ccc(NS(=O)(=O)CC(F)(F)F)cc2[nH]1` [Example 264, 6-(2,2,2-trifluoroethylsulfonamido)-N-(2′-(trifluoromethyl)-[1,1′-biphenyl]-3-yl)-1H-indole-2-carboxamide], the values for the half-inhibitory concentration (IC50) in the assay on LNCaP, in the assay on AGS and at STAT3 were 6.2 µM, 13 µM and 1.9 µM, respectively.

Turning to `NS(=O)(=O)Nc1ccc2cc(C(=O)Nc3cccc(-c4ccccc4C(F)(F)F)c3)[nH]c2c1` [Example 265, 6-(sulfamoylamino)-N-(2′-(trifluoromethyl)-[1,1′-biphenyl]-3-yl)-1H-indole-2-carboxamide], the IC50 in the assay on LNCaP was greater than 10 µM; in the assay with AGS, 11.4 µM; at STAT3, 4.2 µM.
